Patent publication US8148572B2, “Compounds” (AstraZeneca AB, priority 2005, dated 2012)

Each compound was assayed against T1, rhCRTh2 (Homo sapiens, UniProt Q9Y5Y4) (assay: Ligand Binding Assay ([3H]PGD2 displacement, SPA beads coated with HEK cell membranes)). Conditions: [3H]PGD2 binding to HEK cell membranes containing CRTh2; read-out: pIC50 value (converted).
T1 construct: expressed in transfected cells; host or cells: HEK cells (membrane preparation)
T1 sequence (Q9Y5Y4 1-395): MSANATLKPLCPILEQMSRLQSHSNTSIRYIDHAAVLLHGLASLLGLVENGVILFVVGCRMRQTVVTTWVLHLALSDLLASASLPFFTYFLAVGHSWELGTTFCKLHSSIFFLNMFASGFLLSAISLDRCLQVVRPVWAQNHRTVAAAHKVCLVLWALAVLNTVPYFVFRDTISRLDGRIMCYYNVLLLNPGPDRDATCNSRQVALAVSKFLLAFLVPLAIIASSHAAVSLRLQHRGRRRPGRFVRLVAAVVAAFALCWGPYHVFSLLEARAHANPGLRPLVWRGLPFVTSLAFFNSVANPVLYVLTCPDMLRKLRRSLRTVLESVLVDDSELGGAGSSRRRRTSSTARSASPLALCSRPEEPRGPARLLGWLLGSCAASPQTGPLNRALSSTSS
Method: [^3H]PGD2 was purchased from Perkin Elmer Life Sciences with a specific activity of 100-210 Ci/mmol. All other chemicals were of analytical grade.
HEK cells expressing rhCRTh2/Gα16 were routinely maintained in DMEM containing 10% Foetal Bovine Serum (HyClone), 1 mg/ml geneticin, 2 mM L-glutamine and 1% non-essential amino acids. For the preparation of membranes, the adherent transfected HEKcells were grown to confluence in two layer tissue culture factories (Fisher, catalogue number TKT-170-070E). Maximal levels of receptor expression were induced by addition of […] sodium butyrate for the last 18 hours of culture. The adherent cells were washed once with phosphate buffered saline (PBS, 50 ml per cell factory) and detached by the addition of 50 ml per cell factory of ice-cold membrane homogenisation buffer [20 mM HEPES (pH 7.4), 0.1 mM dithiothreitol, 1 mM EDTA, 0.1 mM phenyl methyl sulphonyl fluoride and 100 µg/ml bacitracin]. Cells were pelleted by centrifugation at 220×g for 10 minutes at 4° C., re-suspended in half the original volume of fresh membrane homogenisation buffer and disrupted using a Polytron homogeniser for 2×20 second bursts keeping the tube in ice at all times. […] The final pellet was re-suspended in 4 ml of membrane homogenisation buffer per cell factory used and the protein content determined. […]
All assays were performed in Corning clear bottomed, white 96-well NBS plates (Fisher). […] (The optimum coating concentrations were determined for each batch of membranes) The beads were pelleted by centrifugation (800×g for 7 minutes at 4° C.), washed once with assay buffer (50 mM HEPES pH 7.4 containing 5 mM magnesium chloride) and finally re-suspended in assay buffer at a bead concentration of 10 mg/ml. […]
Compounds and DK-PGD2 were dissolved in DMSO and diluted in the same solvent to 100× the required final concentration. […] The assay plate was incubated at room temperature for 2 hours and counted on a Wallac Microbeta liquid scintillation counter (1 minute per well).

Compared with `CN(C)S(=O)(=O)c1ccc(Oc2cc(CC(=O)O)ccc2Cl)c(Cl)c1` [Example 7, (4-chloro-3-{2-chloro-4-[(dimethylamino)sulfonyl]phenoxy}phenyl)acetic acid], `CS(=O)(=O)c1ccc(Oc2cc(CC(=O)O)ccc2Cl)c(F)c1` [Example 9, {4-chloro-3-[2-fluoro-4-(methylsulfonyl)phenoxy]phenyl}acetic acid] is 1.8-fold higher in IC50: 7.94 nM for the first, 14.1 nM for the second.

With `CS(=O)(=O)c1ccc(Oc2cc(CC(=O)O)ccc2Cl)c(C#N)c1` [Example 11, {4-chloro-3-[2-cyano-4-(methylsulfonyl)phenoxy]phenyl}acetic acid] the IC50 was 8.91 nM.
